Laboratory results as given in ChEMBL document CHEMBL5728971, “Small molecule inhibitors of lactate dehydrogenase and methods of use thereof” (2022).

Experiment: Biochemical Assay: Test compounds were placed in a Greiner Bio-One (Monroe, N.C.) 1536-well black solid bottom assay plate. 200 millimolar (mM) Tris HCl, pH 7.4, 100 micromolar (μM) EDTA and 0.01% TWEEN-20™, final concentration, was used as the assay buffer. The LDHA reagent was 2 nanomolar (nM) Human LDHA (Meridian Life Science, Inc., Memphis, Tenn.), final concentration, in assay buffer.

SMILES	IC50
NS(=O)(=O)c1ccc(Cc2c(-c3cccc(OC4CCCC4)c3)nn(-c3nc(C(=O)O)cs3)c2CC2CC2)cc1F	< 100 nM
NS(=O)(=O)c1ccc(Cc2c(-c3cccc(OCc4ccccc4)c3)nn(-c3nc(C(=O)O)cs3)c2CC2CC2)cc1F	< 100 nM
NS(=O)(=O)c1ccc(Cc2c(-c3cccc(N4CCC(C(F)(F)F)CC4)c3)nn(-c3nc(C(=O)O)cs3)c2CC2CC2)cc1F	< 100 nM
NS(=O)(=O)c1ccc(Cc2c(-c3ccc(F)c(C4=CCN(C(=O)C5CC5)CC4)c3)nn(-c3nc(C(=O)O)cs3)c2CC2CC2)cc1F	< 100 nM
NS(=O)(=O)c1ccc(Cc2c(-c3ccc(F)c(-c4cccc(CN5CCOCC5)c4)c3)nn(-c3nc(C(=O)O)cs3)c2CC2CC2)cc1F	< 100 nM
NS(=O)(=O)c1ccc(Cc2c(-c3ccc(F)c(CC4CC4)c3)nn(-c3nc(C(=O)O)cs3)c2CC2CC2)cc1F	< 100 nM
NS(=O)(=O)c1ccc(Cc2c(-c3ccc(F)c(C4=CCNCC4)c3)nn(-c3nc(C(=O)O)cs3)c2CC2CC2)cc1F	< 100 nM
CCOC(=O)c1csc(-n2nc(CC3CC3)c(Cc3ccc(S(N)(=O)=O)c(F)c3)c2-c2ccc(F)c(-c3cccc(OC)c3)c2)n1	> 57000 nM
NS(=O)(=O)c1ccc(Cc2c(-c3ccc(F)c(C4CCCCC4)c3)nn(-c3nc(C(=O)O)cs3)c2CC2CC2)cc1F	< 100 nM
NS(=O)(=O)c1ccc(Cc2c(-c3ccc(F)c(-c4ccccc4F)c3)nn(-c3nc(C(=O)O)cs3)c2CC2CC2)cc1F	< 100 nM
COc1cccc(-c2cc(-c3c(Cc4ccc(S(N)(=O)=O)c(F)c4)c(CC4CC4)nn3-c3nc(C(=O)O)cs3)ccc2F)c1	in the range around 29000 nM
NS(=O)(=O)c1ccc(Cc2c(-c3cccc(OCc4ccccc4)c3)nn(-c3nc(C(=O)O)cs3)c2CC2CC2)cc1	< 100 nM
NS(=O)(=O)c1ccc(Cc2c(-c3ccc(F)c(C4CC4)c3)nn(-c3nc(C(=O)O)cs3)c2CC2CC2)cc1F	< 100 nM
CC(c1ccccc1)c1cc(-c2nn(-c3nc(C(=O)O)cs3)c(CC3CC3)c2Cc2ccc(S(N)(=O)=O)c(F)c2)ccc1F (stereo not drawn)	< 100 nM
CCOC(=O)c1csc(-n2nc(-c3ccc(F)c(-c4cccc(OC)c4)c3)c(Cc3ccc(S(N)(=O)=O)c(F)c3)c2CC2CC2)n1	in the range around 29000 nM
CNS(=O)(=O)c1ccc(Cc2c(-c3ccc(F)c(-c4cccc(F)c4)c3)nn(-c3nc(C(=O)O)cs3)c2CC2CC2)cc1F	in the range around 550 nM
NS(=O)(=O)c1ccc(Cc2c(-c3ccc(F)c(C4CCCC4)c3)nn(-c3nc(C(=O)O)cs3)c2CC2CC2)cc1F	< 100 nM
COc1cccc(-c2cc(-c3nn(-c4nc(C(=O)O)cs4)c(CC4CC4)c3Cc3ccc(S(N)(=O)=O)c(F)c3)ccc2F)c1	< 100 nM
CCOC(=O)c1csc(-n2nc(CC3CC3)c(Cc3ccc(S(N)(=O)=O)cc3F)c2-c2ccc(F)c(-c3cccc(OC)c3)c2)n1	> 57000 nM

SMILES	IC50
NS(=O)(=O)c1ccc(Cc2c(-c3cccc(S(F)(F)(F)(F)F)c3)nn(-c3nc(C(=O)O)cs3)c2CC2CC2)cc1F	< 100 nM
NS(=O)(=O)c1ccc(Cc2c(CC3CC3)nn(-c3nc(C(=O)O)cs3)c2-c2ccc(F)c(-c3cccc(F)c3)c2)cc1F	in the range around 29000 nM
CCOC(=O)c1csc(-n2nc(-c3ccc(F)c(-c4ccc(C)cc4)c3)c(Cc3ccc(S(N)(=O)=O)c(F)c3)c2CC2CC2)n1	in the range around 29000 nM
CCOC(=O)c1csc(-n2nc(-c3cccc(OC4CCCC4)c3)c(Cc3ccc(S(N)(=O)=O)c(F)c3)c2CC2CC2)n1	in the range around 29000 nM
CCOC(=O)c1csc(-n2nc(-c3cccc(OC4CCCC4)c3)c(Cc3ccc(S(N)(=O)=O)cc3F)c2CC2CC2)n1	in the range around 29000 nM
CC(C)c1cc(-c2nn(-c3nc(C(=O)O)cs3)c(CC3CC3)c2Cc2ccc(S(N)(=O)=O)c(F)c2)ccc1F	< 100 nM
NS(=O)(=O)c1ccc(Cc2c(-c3cccc(OC4CCCC4)c3)nn(-c3nc(C(=O)O)cs3)c2CC2CC2)cc1	< 100 nM
CN1CCC(c2cc(-c3nn(-c4nc(C(=O)O)cs4)c(CC4CC4)c3Cc3ccc(S(N)(=O)=O)c(F)c3)ccc2F)CC1	< 100 nM
CCOC(=O)c1csc(-n2nc(-c3cccc(-c4ccccc4)c3)c(Cc3ccc(S(N)(=O)=O)c(F)c3)c2CC2CC2)n1	> 57000 nM
NS(=O)(=O)c1ccc(Cc2c(-c3cccc(C4CCCC4)c3)nn(-c3nc(C(=O)O)cs3)c2CC2CC2)cc1	< 100 nM
NS(=O)(=O)c1ccc(Cc2c(-c3ccc(F)c(C4=COCCC4)c3)nn(-c3nc(C(=O)O)cs3)c2CC2CC2)cc1F	< 100 nM
NS(=O)(=O)c1ccc(Cc2c(-c3ccc(F)c(CCCCC(F)(F)F)c3)nn(-c3nc(C(=O)O)cs3)c2CC2CC2)cc1F	< 100 nM
NS(=O)(=O)c1ccc(Cc2c(CC3CC3)nn(-c3nc(C(=O)O)cs3)c2-c2cccc(OCc3ccccc3)c2)cc1	in the range around 29000 nM
NS(=O)(=O)c1ccc(Cc2c(-c3ccc(F)c(C4C5CC6CC(C5)CC4C6)c3)nn(-c3nc(C(=O)O)cs3)c2CC2CC2)cc1F (stereo not drawn)	in the range around 550 nM
NS(=O)(=O)c1ccc(Cc2c(-c3ccc(F)c(C4CCC4)c3)nn(-c3nc(C(=O)O)cs3)c2CC2CC2)cc1F	< 100 nM
CCC(C)(C)c1cc(-c2nn(-c3nc(C(=O)O)cs3)c(CC3CC3)c2Cc2ccc(S(N)(=O)=O)c(F)c2)ccc1F	< 100 nM
NS(=O)(=O)c1ccc(Cc2c(-c3ccc(F)c(C4CCOCC4)c3)nn(-c3nc(C(=O)O)cs3)c2CC2CC2)cc1F	< 100 nM
CC(C)(C)Cc1cc(-c2nn(-c3nc(C(=O)O)cs3)c(CC3CC3)c2Cc2ccc(S(N)(=O)=O)c(F)c2)ccc1F	< 100 nM

The next lines start with the values.

IC50	SMILES
< 100 nM	NS(=O)(=O)c1ccc(Cc2c(-c3ccc(F)c(-c4ccccc4)c3)nn(-c3nc(C(=O)O)cs3)c2CC2CC2)cc1F
< 100 nM	NS(=O)(=O)c1ccc(Cc2c(-c3cccc(-c4ccccc4)c3)nn(-c3nc(C(=O)O)cs3)c2CC2CC2)cc1F
< 100 nM	NS(=O)(=O)c1ccc(Cc2c(-c3cccc(-c4ccc(F)cc4)c3)nn(-c3nc(C(=O)O)cs3)c2C2CC2)c(F)c1
< 100 nM	NS(=O)(=O)c1ccc(Cc2c(-c3cccc(OCc4ccccc4)c3)nn(-c3nc(C(=O)O)cs3)c2CC2CC2)c(F)c1
in the range around 29000 nM	NS(=O)(=O)c1ccc(Cc2c(CC3CC3)nn(-c3nc(C(=O)O)cs3)c2-c2ccc(F)c(-c3cccc(F)c3)c2)c(F)c1
< 100 nM	COc1cccc(-c2cccc(-c3nn(-c4nc(C(=O)O)cs4)c(C4CC4)c3Cc3ccc(S(N)(=O)=O)cc3F)c2)c1
in the range around 29000 nM	Cc1ccc(-c2cccc(-c3c(Cc4ccc(S(N)(=O)=O)cc4F)c(C4CC4)nn3-c3nc(C(=O)O)cs3)c2)cc1
< 100 nM	NS(=O)(=O)c1ccc(Cc2c(-c3cccc(-c4cccc(F)c4)c3)nn(-c3nc(C(=O)O)cs3)c2CC2CC2)cc1
in the range around 29000 nM	NS(=O)(=O)c1ccc(Cc2c(C3CC3)nn(-c3nc(C(=O)O)cs3)c2-c2cccc(-c3cccc(F)c3)c2)cc1F
in the range around 29000 nM	COc1cccc(-c2cccc(-c3c(Cc4ccc(S(N)(=O)=O)c(F)c4)c(C4CC4)nn3-c3nc(C(=O)O)cs3)c2)c1
> 57000 nM	CCOC(=O)c1csc(-n2nc(-c3cccc(-c4ccc(C)cc4)c3)c(Cc3ccc(S(N)(=O)=O)cc3F)c2CC2CC2)n1
in the range around 29000 nM	Cc1ccc(-c2cccc(-c3c(Cc4ccc(S(N)(=O)=O)c(F)c4)c(C4CC4)nn3-c3nc(C(=O)O)cs3)c2)cc1
< 100 nM	COc1cccc(-c2cc(-c3nn(-c4nc(C(=O)O)cs4)c(CC4CC4)c3Cc3ccc(S(N)(=O)=O)cc3F)ccc2F)c1
< 100 nM	NS(=O)(=O)c1ccc(Cc2c(-c3cccc(-c4cccc(F)c4)c3)nn(-c3nc(C(=O)O)cs3)c2C2CC2)c(F)c1
< 100 nM	NS(=O)(=O)c1ccc(Cc2c(-c3cccc(-c4cccc(F)c4)c3)nn(-c3nc(C(=O)O)cs3)c2CC2CC2)cc1F
in the range around 29000 nM	NS(=O)(=O)c1ccc(Cc2c(C3CC3)nn(-c3nc(C(=O)O)cs3)c2-c2cccc(-c3ccc(F)cc3)c2)cc1F

IC50	SMILES
< 100 nM	NS(=O)(=O)c1ccc(Cc2c(-c3cccc(-c4ccc(F)cc4)c3)nn(-c3nc(C(=O)O)cs3)c2C2CC2)cc1F
< 100 nM	Cc1ccc(-c2cccc(-c3nn(-c4nc(C(=O)O)cs4)c(CC4CC4)c3Cc3ccc(S(N)(=O)=O)c(F)c3)c2)cc1
in the range around 29000 nM	CCOC(=O)c1csc(-n2nc(-c3ccc(F)c(-c4ccc(F)cc4)c3)c(Cc3ccc(S(N)(=O)=O)cc3F)c2CC2CC2)n1
in the range around 29000 nM	NS(=O)(=O)c1ccc(Cc2c(C3CC3)nn(-c3nc(C(=O)O)cs3)c2-c2cccc(-c3cccc(F)c3)c2)c(F)c1
> 57000 nM	CCOC(=O)c1csc(-n2nc(-c3ccc(F)c(-c4cccc(OC)c4)c3)c(Cc3ccc(S(N)(=O)=O)cc3F)c2CC2CC2)n1
in the range around 29000 nM	NS(=O)(=O)c1ccc(Cc2c(C3CC3)nn(-c3nc(C(=O)O)cs3)c2-c2cccc(-c3ccc(F)cc3)c2)c(F)c1
< 100 nM	NS(=O)(=O)c1ccc(Cc2c(-c3cccc(-c4cccc(F)c4)c3)nn(-c3nc(C(=O)O)cs3)c2C2CC2)cc1F
< 100 nM	NS(=O)(=O)c1ccc(Cc2c(-c3ccc(F)c(-c4cccc(F)c4)c3)nn(-c3nc(C(=O)O)cs3)c2CC2CC2)c(F)c1
< 100 nM	NS(=O)(=O)c1ccc(Cc2c(-c3ccc(F)c(-c4cccc(F)c4)c3)nn(-c3nc(C(=O)O)cs3)c2CC2CC2)cc1F
in the range around 29000 nM	NS(=O)(=O)c1cccc(Cc2c(-c3ccc(F)c(-c4cccc(F)c4)c3)nn(-c3nc(C(=O)O)cs3)c2CC2CC2)c1
in the range around 29000 nM	COc1cccc(-c2cccc(-c3c(Cc4ccc(S(N)(=O)=O)cc4F)c(C4CC4)nn3-c3nc(C(=O)O)cs3)c2)c1
in the range around 29000 nM	COc1cccc(-c2cc(-c3c(Cc4ccc(S(N)(=O)=O)cc4F)c(CC4CC4)nn3-c3nc(C(=O)O)cs3)ccc2F)c1
< 100 nM	Cc1ccc(-c2cccc(-c3nn(-c4nc(C(=O)O)cs4)c(C4CC4)c3Cc3ccc(S(N)(=O)=O)cc3F)c2)cc1
< 100 nM	Cc1ccc(-c2cccc(-c3nn(-c4nc(C(=O)O)cs4)c(C4CC4)c3Cc3ccc(S(N)(=O)=O)c(F)c3)c2)cc1
< 100 nM	NS(=O)(=O)c1ccc(Cc2c(-c3cccc(OC4CCCC4)c3)nn(-c3nc(C(=O)O)cs3)c2CC2CC2)c(F)c1
